Assay results taken from ChEMBL document CHEMBL5505978, “Novel estrogen receptor β/histone deacetylase dual-targeted near-infrared fluorescent probes as theranostic agents for imaging and treatment of prostate cancer” (Eur J Med Chem, 2024).
Activity calls are given as the source filed them. No cut-off for these calls is given here.

Assays:
[1] = target: Estrogen receptor beta (Homo sapiens) (UniProt Q92731); test: Binding affinity to ERbeta in human DU-145 cells assessed as increase in intracellular fluorescence signal at 10 uM incubated for 30 mins in presence of estradiol by imaging analysis; type: cell-based
Sequence of Estrogen receptor beta (Homo sapiens) (Q92731 whole entry): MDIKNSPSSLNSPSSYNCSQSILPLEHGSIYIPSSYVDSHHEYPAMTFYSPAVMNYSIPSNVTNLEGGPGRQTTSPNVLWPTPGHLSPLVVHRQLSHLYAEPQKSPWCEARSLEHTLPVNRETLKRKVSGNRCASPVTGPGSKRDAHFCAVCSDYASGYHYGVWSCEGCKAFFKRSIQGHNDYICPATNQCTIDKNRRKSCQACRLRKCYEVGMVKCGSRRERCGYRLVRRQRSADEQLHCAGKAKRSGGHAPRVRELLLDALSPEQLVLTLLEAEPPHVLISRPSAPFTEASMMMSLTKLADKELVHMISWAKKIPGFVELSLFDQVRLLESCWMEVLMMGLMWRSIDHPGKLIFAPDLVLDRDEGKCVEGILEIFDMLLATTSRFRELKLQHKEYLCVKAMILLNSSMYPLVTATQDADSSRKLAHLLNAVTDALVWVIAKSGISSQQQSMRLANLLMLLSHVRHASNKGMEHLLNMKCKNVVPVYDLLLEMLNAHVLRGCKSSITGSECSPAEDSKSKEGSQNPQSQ

[2] = target: T1, Protein deacetylase HDAC6 (Homo sapiens, UniProt Q9UBN7); test: Inhibition of HDAC6 (unknown origin) preincubated with compound for 30 mins followed by substrate addition measured after 15 mins by fluorescence based assay
T1 sequence (Q9UBN7 whole entry): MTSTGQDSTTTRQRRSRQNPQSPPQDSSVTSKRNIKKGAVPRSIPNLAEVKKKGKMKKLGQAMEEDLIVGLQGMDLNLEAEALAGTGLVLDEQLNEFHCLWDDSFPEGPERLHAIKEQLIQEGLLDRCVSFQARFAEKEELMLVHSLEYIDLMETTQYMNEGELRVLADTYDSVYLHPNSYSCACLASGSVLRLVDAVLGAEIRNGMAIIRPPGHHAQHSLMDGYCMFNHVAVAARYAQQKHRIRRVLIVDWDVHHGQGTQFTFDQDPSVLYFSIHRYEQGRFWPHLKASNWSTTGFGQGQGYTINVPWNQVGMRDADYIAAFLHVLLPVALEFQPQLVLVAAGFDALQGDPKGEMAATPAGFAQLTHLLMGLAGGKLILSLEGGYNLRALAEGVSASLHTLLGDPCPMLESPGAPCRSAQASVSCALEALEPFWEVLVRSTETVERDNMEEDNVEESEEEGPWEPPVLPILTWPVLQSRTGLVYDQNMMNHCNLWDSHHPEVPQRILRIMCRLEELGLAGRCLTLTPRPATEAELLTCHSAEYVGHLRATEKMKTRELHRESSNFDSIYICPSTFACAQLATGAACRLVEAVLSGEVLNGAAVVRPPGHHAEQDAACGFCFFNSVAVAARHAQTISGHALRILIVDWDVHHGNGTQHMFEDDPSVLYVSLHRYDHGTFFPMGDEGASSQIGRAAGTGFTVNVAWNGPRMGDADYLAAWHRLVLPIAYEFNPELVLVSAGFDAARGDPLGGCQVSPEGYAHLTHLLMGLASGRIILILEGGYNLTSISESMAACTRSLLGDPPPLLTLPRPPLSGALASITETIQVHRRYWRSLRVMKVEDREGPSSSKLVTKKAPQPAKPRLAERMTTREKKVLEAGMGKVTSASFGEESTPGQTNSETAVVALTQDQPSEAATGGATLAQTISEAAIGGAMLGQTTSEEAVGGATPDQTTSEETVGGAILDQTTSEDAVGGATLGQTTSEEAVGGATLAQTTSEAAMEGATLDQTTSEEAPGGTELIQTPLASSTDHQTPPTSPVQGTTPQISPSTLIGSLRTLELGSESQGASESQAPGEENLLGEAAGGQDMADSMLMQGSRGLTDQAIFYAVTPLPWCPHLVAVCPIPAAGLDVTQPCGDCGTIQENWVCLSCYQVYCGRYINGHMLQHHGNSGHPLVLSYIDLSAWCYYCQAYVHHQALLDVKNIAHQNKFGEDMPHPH

DU-145 [3] = test: cells; type: functional, cell-based; conditions: Homo sapiens
Description: Antiproliferative activity against human DU-145 cells assessed as inhibition of cell growth incubated for 3 to 5 days by CCK-8 assay

DU-145 [4] = test: Antitumor activity against human DU-145 cells xenografted in Balb/c mouse assessed as inhibition of tumor growth at 10 mg/kg,ip administration once every 2 days for 20 days; type: functional, organism-based; conditions: time 20.0 day
[5] = Drug uptake in Balb/c mouse xenografted with human DU-145 cells assessed as increase in fluorescence intensity in tumor at 0.5 mg/kg,ip administration and measured upto 24 hrs by imaging analysis; type: ADME, organism-based; conditions: in vivo
[6] = Toxicity in Balb/c mouse xenografted with human DU-145 cells assessed as change in body weight at 10 mg/kg,ip administration once every 2 days for 20 days; type: organism-based; conditions: in vivo, 480 h, time 20 day
Histone deacetylase 1 = Histone deacetylase 1 (Homo sapiens, UniProt Q13547); test: Inhibition of HDAC1 (unknown origin) preincubated with compound for 30 mins followed by substrate addition measured after 15 mins by fluorescence based assay
Sequence of Histone deacetylase 1 (Q13547 whole entry): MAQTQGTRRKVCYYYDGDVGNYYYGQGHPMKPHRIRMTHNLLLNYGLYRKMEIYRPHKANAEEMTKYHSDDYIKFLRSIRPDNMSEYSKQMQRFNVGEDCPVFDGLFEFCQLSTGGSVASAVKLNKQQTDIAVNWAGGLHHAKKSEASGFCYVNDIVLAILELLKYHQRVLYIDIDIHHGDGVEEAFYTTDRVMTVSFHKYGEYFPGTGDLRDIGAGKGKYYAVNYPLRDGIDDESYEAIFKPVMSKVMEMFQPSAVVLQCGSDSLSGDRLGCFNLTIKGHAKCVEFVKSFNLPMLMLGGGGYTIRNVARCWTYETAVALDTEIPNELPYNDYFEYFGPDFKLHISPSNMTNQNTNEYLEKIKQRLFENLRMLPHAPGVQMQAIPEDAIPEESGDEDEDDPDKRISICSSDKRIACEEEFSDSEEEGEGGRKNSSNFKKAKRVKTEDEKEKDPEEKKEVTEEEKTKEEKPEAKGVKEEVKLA

[7] = Toxicity in Balb/c mouse xenografted with human DU-145 cells assessed as animal death at 10 mg/kg,ip administration once every 2 days for 20 days; type: organism-based; conditions: in vivo, 480 h, time 20 day
[8] = Drug uptake in Balb/c mouse xenografted with human DU-145 cells assessed as increase in fluorescence intensity in tumor tissue at 0.5 mg/kg,ip administration and measured at 36 hrs by imaging analysis; type: ADME, organism-based, Neoplasm; conditions: in vivo
[9] = target: Estrogen receptor beta (Homo sapiens) (UniProt Q92731); test: Binding affinity to ERbeta in human DU-145 cells assessed as increase in intracellular fluorescence signal at 10 uM incubated for 30 mins by imaging analysis; type: cell-based; conditions: filed as agonist
[10] = target: Estrogen receptor beta (Homo sapiens) (UniProt Q92731); test: Binding affinity to ERbeta in human DU-145 cells at 10 uM incubated for 30 mins by immunofluorescence based assay; type: cell-based; conditions: filed as agonist
[11] = Drug uptake in Balb/c mouse xenografted with human DU-145 cells assessed as increase in fluorescence intensity in tumor tissue at 0.5 mg/kg,ip administration and measured at 17 hrs by imaging analysis; type: ADME, organism-based, Neoplasm; conditions: in vivo
DU-145 [12] = test: Antitumor activity against human DU-145 cells xenografted in Balb/c mouse assessed as reduction in tumor weight at 10 mg/kg,ip administration once every 2 days for 20 days; type: functional, organism-based; conditions: time 20.0 day
[13] = target: Estrogen receptor beta (Homo sapiens) (UniProt Q92731); test: Binding affinity to ERbeta in human DU-145 cells assessed as increase in intracellular fluorescence signal at 10 uM incubated for 1 hr in presence of SAHA by imaging analysis; type: cell-based
[14] = target: T2, Protein deacetylase HDAC6 (Homo sapiens) (UniProt Q9UBN7); test: Binding affinity to HDAC6 in human DU-145 cells at 10 uM incubated for 30 mins by Alexa Fluor 488 staining based immunofluorescence based assay; type: cell-based; conditions: filed as agonist
T2 sequence (whole entry): T1 sequence (Q9UBN7 whole entry)

[15] = Drug uptake in Balb/c mouse xenografted with human DU-145 cells assessed as increase in fluorescence intensity in liver at 0.5 mg/kg,ip administration and measured at 17 hrs by imaging analysis; type: ADME, organism-based; conditions: in vivo
[16] = Drug uptake in Balb/c mouse xenografted with human DU-145 cells assessed as increase in fluorescence intensity in tumor tissue at 0.5 mg/kg,ip administration and measured at 24 hrs by imaging analysis; type: ADME, organism-based, Neoplasm; conditions: in vivo
DU-145 [17] = test: Antitumor activity against human DU-145 cells xenografted in Balb/c mouse assessed as reduction in tumor volume at 10 mg/kg,ip administration once every 2 days for 20 days; type: functional, organism-based; conditions: time 20.0 day
[18] = Drug uptake in Balb/c mouse xenografted with human DU-145 cells assessed as increase in fluorescence intensity in tumor at 0.5 mg/kg,ip administration and measured at 12 hrs by imaging analysis; type: ADME, organism-based; conditions: in vivo
[19] = Drug uptake in Balb/c mouse xenografted with human DU-145 cells assessed as increase in fluorescence intensity in tumor at 0.5 mg/kg,ip administration and measured at 17 hrs by imaging analysis; type: ADME, organism-based; conditions: in vivo
in vitro = conditions: green monkey (Chlorocebus sabaeus), Vero cells
Description: Antiproliferative activity against green monkey Vero cells assessed as inhibition of cell growth incubated for 3 to 5 days by CCK-8 assay

[20] = Drug uptake in human DU-145 cells assessed as colocalization in […] by measuring fluorescence signal at 10 uM incubated for 30 mins by Mito-Tracker Green staining based fluorescence imaging analysis; type: ADME, cell-based; conditions: du-145, 0.5 h
[21] = Drug uptake in Balb/c mouse xenografted with human DU-145 cells assessed as increase in fluorescence intensity in kidney at 0.5 mg/kg,ip administration and measured at 17 hrs by imaging analysis; type: ADME, organism-based; conditions: in vivo
[22] = Drug uptake in human DU-145 cells assessed as colocalization in nucleus by measuring fluorescence signal at 10 uM incubated for 30 mins by DAPI staining based fluorescence imaging analysis; type: ADME, cell-based; conditions: du-145, 0.5 h

Row | IC50 (DU-145 [3]) [nM] | IC50 (in vitro) [µM] | Structure (SMILES) | IC50 [2] [nM] | IC50 (Histone deacetylase 1) | Activity [10] [%] | Activity (DU-145 [12]) | Activity [14] [%] | Activity (DU-145 [17]) | Drug uptake [20] | Drug uptake [22] | also measured
1 | – | – | O=C(CCCCCCC(=O)Nc1ccccc1)NO | – | – | – | Active | – | Active | – | – | –
2 | 15300 | > 100 | N#CC(C#N)=C1C=C(/C=C/c2ccc(O)c(NC(=O)CCCCCCC(=O)NO)c2)Oc2ccc(O)cc21 | 2360 | Not Active | 96.3 | – | 97.6 | – | Active | Active | –
3 | 270 | 1.45 | N#CC(C#N)=C1C=C(/C=C/c2ccc(O)cc2)Oc2ccc(O)cc21 | – | – | – | – | – | – | – | – | –

Row | Structure (SMILES) | IC50 (DU-145 [3]) [nM] | IC50 (in vitro) [µM] | IC50 [2] [nM] | IC50 (Histone deacetylase 1) | Activity [10] [%] | Activity (DU-145 [12]) | Activity [14] [%] | Activity (DU-145 [17]) | Drug uptake [20] | Drug uptake [22] | also measured
4 | N#CC(C#N)=C1C=C(/C=C/c2ccc(O)c(NC(=O)CCCCCCC(=O)NO)c2)Oc2ccccc21 | 960 | 6.13 | 52 | Not Active | 90.8 | Active | 76.7 | Active | Active | Active | Activity [1]: inactive; Activity (DU-145 [4]): Active; Drug uptake [5]: Active; Activity [6]: Non-Toxic; Activity [7]: Non-Toxic; Drug uptake [8]: Not Active; Activity [9]: Active; Drug uptake [11]: Active; Activity [13]: inactive; Drug uptake [15]: Not Active; Drug uptake [16]: Not Active; Drug uptake [18]: Active; Drug uptake [19]: Active; Drug uptake [21]: Not Active
